The target in test [1] is T1, C-terminal catalytic domain of human DNMT3A (hDNMT3A) (Homo sapiens, UniProt Q9Y6K1).
T1 construct: catalytic domain of human DNMT3A (residues 623–908), produced as described; made in house
As to the kind of experiment: DNMT3A assay (restriction-based fluorescence assay). It is filed as biochemical. Conditions: for inhibition at 3.2 µM: 3.2 µM compound; for inhibition at 3.2 µM / inhibition at 10 µM / inhibition at 32 µM / inhibition at 100 µM: read-out: % inhibition ± SD hDNMT3A; for inhibition at 10 µM: 10 µM compound; for inhibition at 32 µM: 32 µM compound; for inhibition at 100 µM: 100 µM compound; for EC50: catalytic domain of hDNMT3A, means of at least three experiments. An excerpt:
(§1) DNMT3A enzyme inhibition was adapted from the restriction-based fluorescence assay protocol described in Ceccaldi et al.. Briefly, a 5'-labelled biotin oligonucleotide is hybridized to its complementary strand labelled with 6-carboxyfluorescein at the 3′-end into a 384 well microplate (black Optiplates; Perkin Elmer) pre-coated with avidin. The duplex contains a unique CpG site overlapping with a restriction site of a methylation sensitive restriction enzyme. The C-terminal catalytic domain of human DNMT3A (residues 623–908), produced as described, was added in each well (200 ng/well) and mixed with the chemical compounds at desired concentrations and freshly prepared AdoMet (20 µM final concentration) to start the reaction in a total volume of 50 µL. After 1 hour incubation at 37°C each well were washed three times with PBS, 0.05% Tween-20, 500 mM NaCl and three more times with PBST. Specific fluorescent signals were detected with the methylation-sensitive restriction enzyme HpyCH4IV (NEB) as described and measured on a Perkin Elmer Envision detector. The percentage of inhibition is reported. The formula used to calculate the percentage of inhibition is [(X-Y)/X]×100, where X is the signal determined in the absence of the inhibitor and Y is the signal obtained in the presence of the inhibitor. […] The non-linear regression fittings with sigmoidal dose-response (variable slope) were performed with GraphPad Prism 4.03 (GraphPad Software).

Test [2] has as its system C-terminal catalytic domain of human DNMT3A (hDNMT3A). Described as above. It is filed as biochemical. Particulars: for selectivity for DNMT3A over G9a inhibition: G9a IC50 vs DNMT3A EC50.
Source text: as §1

The target of test [3] is T2, human G9a-like protein (GLP) (Homo sapiens, UniProt Q9H9B1).
T2 construct: catalytic SET domain (residues 734-1235; pXC758) were purified as described; made in house
T2 sequence (Q9H9B1 765-1266): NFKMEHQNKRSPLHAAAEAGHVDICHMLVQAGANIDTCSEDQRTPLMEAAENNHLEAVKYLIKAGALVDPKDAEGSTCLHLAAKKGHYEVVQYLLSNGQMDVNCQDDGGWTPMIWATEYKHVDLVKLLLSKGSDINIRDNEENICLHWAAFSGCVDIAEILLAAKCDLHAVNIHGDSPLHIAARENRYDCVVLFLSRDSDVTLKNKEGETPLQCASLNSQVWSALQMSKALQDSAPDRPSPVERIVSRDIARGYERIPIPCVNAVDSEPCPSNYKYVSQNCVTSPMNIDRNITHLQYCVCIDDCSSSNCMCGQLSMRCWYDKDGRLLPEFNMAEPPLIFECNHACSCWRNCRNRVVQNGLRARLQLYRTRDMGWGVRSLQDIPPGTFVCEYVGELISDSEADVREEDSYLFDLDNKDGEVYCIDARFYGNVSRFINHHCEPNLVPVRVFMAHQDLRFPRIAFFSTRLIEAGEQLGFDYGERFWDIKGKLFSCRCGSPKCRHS
The test can be described thus: GLP assay (histone methylation inhibition). It is filed as biochemical. Conditions: 8 μM inhibitor; read-out: Percent of GLP inhibition. As for the experimental part: GLP Assay. Recombinant human G9a-like protein (GLP) C-terminal fragment containing both the ankyrin repeats and catalytic SET domain (residues 734-1235; pXC758) were purified as described. For histone methylation inhibition, the assay was performed in 20 μL reaction containing 4.6 mM [methyl-^3H]-AdoMet, 50 μg/mL histone from calf thymus (SIGMA), 10 μg/mL (0.17 μM) GLP, 100 mM KCl, 5 mM (DTT) and 50 mM Tris-HCl pH 8.5. GLP was pre-incubated with AdoMet and 8 µM inhibitors for 5 min at 30 °C before the addition of the histone substrate. After incubation (5 min), the reaction was terminated by the addition of 20% trichloroacetic acid (TCA, Fisher Scientific). The reaction mixture was spotted on GF/A paper circles (Whatman), washed three times with 3 mL of 10% TCA and once with 3 mL of ethanol. The dried circles were subjected to liquid-scintillation counting with Cytoscint scintillant.

For test [4], the system named is U-937 cells. As to the kind of experiment: Cell viability by trypan blue exclusion, U-937. It is filed as cell-based, human. Particulars: U-937, 48 h; for IC50: Homo sapiens, read-out: IC50 (mean ± SD) cell viability U-937. As for the experimental part: (§2) U-937 and RAJI cell lines were purchased from Deutsche Sammlung für Mikroorganismen und Zellkulturen (DSZM). Cells were maintained in RPMI 1640 (Lonza) supplemented with 10% fetal calf serum (Lonza) and 1% antibiotic–antimycotic (Lonza). Cells were treated with compounds at the indicated concentrations in exponential growth phase. Proliferation and viability were assessed by trypan blue exclusion analysis at the indicated time points.

The test system of test [5] is RAJI cells. As to the kind of experiment: Cell viability by trypan blue exclusion, RAJI. Conditions: 48 h; for IC50: Homo sapiens, Raji, read-out: IC50 (mean ± SD) cell viability RAJI. It is filed as cell-based, human. As for the experimental part: as §2

The term inhibition denotes the drop in the measured response relative to a control, in per cent. Broadly, the EC50 is the concentration giving half of the maximal effect. The low end stands for a more potent agent, the high end for a less potent agent. The IC50 is the concentration at which inhibition is half-maximal.

T1 sequence (Q9Y6K1 627-912): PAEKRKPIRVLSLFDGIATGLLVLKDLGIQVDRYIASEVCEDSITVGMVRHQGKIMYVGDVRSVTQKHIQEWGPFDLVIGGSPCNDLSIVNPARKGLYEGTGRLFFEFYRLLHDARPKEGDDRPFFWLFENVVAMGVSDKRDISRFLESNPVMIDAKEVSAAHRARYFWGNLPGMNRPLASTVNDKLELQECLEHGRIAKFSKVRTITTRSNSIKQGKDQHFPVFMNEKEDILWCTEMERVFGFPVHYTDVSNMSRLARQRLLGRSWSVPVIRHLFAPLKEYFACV

`CN1CCCN(c2nc(NC3CCN(Cc4ccccc4)CC3)c3ccccc3n2)CC1` [Compound 4]: in test [1], the inhibition at 3.2 µM amounted to 16 ± 4%, the inhibition at 10 µM was determined as 39 ± 2%, the inhibition at 32 µM was 55 ± 3% and the inhibition at 100 µM is 67 ± 3%. In test [1], the concentration for a half-maximal effect (EC50) stood at 10 ± 2.5 µM. Also, the “selectivity for DNMT3A over G9a inhibition” value in test [2] was > 40 fold. In addition, the inhibition at 8 µM in test [3] is 0%. For the same compound, in test [4], the half-maximal inhibitory concentration (IC50) was 16.6 ± 3.8 µM. Further, the 50% inhibitory concentration (IC50) in test [5] is 21.1 ± 2.5 µM.
On to `c1ccc(CN2CCC(Nc3nc(N4CCCC4)nc4ccccc34)CC2)cc1` [Compound 10, N-(1-benzylpiperidin-4-yl)-2-(pyrrolidin-1-yl)quinazolin-4-amine], for which, in test [1], the inhibition at 3.2 µM was found to be 8 ± 4%, the inhibition at 10 µM stood at 21 ± 8%, the inhibition at 32 µM turned out to be 43 ± 6% and the inhibition at 100 µM was 70 ± 4%. Further, the concentration giving a half-maximal response (EC50) in test [1] was 35 ± 12 µM. Besides, the “selectivity for DNMT3A over G9a inhibition” value in test [2] was 18 fold. In test [2] (ratio of EC50 values), the “selectivity for DNMT3A over DNMT1” value worked out at 4 fold. In addition, the inhibition at 8 µM in test [3] came to 9.2%. In addition, the IC50 in test [4] came out at 14.7 ± 3.8 µM. In test [5], the 50% inhibitory concentration (IC50) stood at 18.7 ± 4.3 µM.
For `c1ccc(CN2CCC(Nc3nc(N4CCN(c5ccccn5)CC4)nc4ccccc34)CC2)cc1` [Compound 13], in test [1], the inhibition at 3.2 µM was found to be 8 ± 1%, the inhibition at 10 µM was found to be 19 ± 13%, the inhibition at 32 µM was determined as 52 ± 5% and the inhibition at 100 µM is 62 ± 3%. In test [1], this compound registered an EC50 of 12 ± 4 µM. In test [2], the “selectivity for DNMT3A over G9a inhibition” value is listed as > 40 fold. Besides, the inhibition at 8 µM in test [3] was 3.3%. Besides, in test [4], the IC50 amounted to 18.8 ± 1.2 µM. Further, in test [5], the concentration for half-maximal inhibition (IC50) was found to be 19.7 ± 1.4 µM.
In the case of `c1ccc(CN2CCC(Nc3nc(N4CCN(c5ccccc5)CC4)nc4ccccc34)CC2)cc1` [Compound 14, N-(1-benzylpiperidin-4-yl)-2-(4-phenylpiperazin-1-yl)quinazolin-4-amine], in test [1], the inhibition at 3.2 µM came out at 13 ± 2%, the inhibition at 10 µM stood at 40 ± 4%, the inhibition at 32 µM came to 54 ± 3% and the inhibition at 100 µM worked out at 63 ± 4%. Moreover, a half-maximal effect in test [1] (EC50) was put at 9 ± 2 µM. For the same compound, the “selectivity for DNMT3A over G9a inhibition” value in test [2] is reported as > 40 fold. The inhibition at 8 µM in test [3] was determined as 10%. Further, in test [4], the IC50 was 4.4 ± 1.4 µM and the “antiproliferative potency compared to SGI-1027, fold less efficient” value is 2.6 fold. For the same compound, in test [5], the IC50 worked out at 3.4 ± 0.3 µM. Besides, the “antiproliferative potency compared to SGI-1027, fold more potent” value in test [5] (RAJI) was 3 fold.

(Values after paper PMC4014597 (PLoS ONE, 2014).)
